Data from paper PMC9820559, “Investigation of the Fuzzy Complex between RSV Nucleoprotein and Phosphoprotein to Optimize an Inhibition Assay by Fluorescence Polarization” (International Journal of Molecular Sciences, 2022).
Square brackets hold non-standard residues; d marks the D form. Peptide text beside a SMILES is read from it. * marks the point of attachment. BODIPY(FL) = CC1=CC(C)=[N+]2C1=Cc1ccc(CCC(=O)*)n1[B-]2(F)F; FITC = O=C1OC2(c3ccc(O)cc3Oc3cc(O)ccc32)c2ccc(NC(=S)*)cc21; pS = N[C@@H](COP(=O)(O)O)C(=O)O

Legend:
[1] = biological target: T1, RSV N-RNA complex (Human respiratory syncytial virus A, UniProt P03418); assay: biochemical; format: binding; conditions: Kd, Fn peptides 200 nM, Tris pH 8.0 without salt; single site binding model
T1 construct: Full-length N was produced by co-expression with the C-terminal domain of RSV P protein in E. coli BL21(DE3); made in house; host or cells: E. coli BL21(DE3), co-transformed with pET-N and pGEX-P(161–241)
Method: We carried out FP measurements using the fluorescent F11 peptide and N-RNA complex. […] No salt was added to promote high affinity.
We first measured binding of Fn peptides (200 nM) to N-RNA in Tris buffer by FP (Figure 5A,B). […] We fitted the data with ΔFPmax and Kd as parameters.
We therefore measured fluorescein FP in the presence of N-RNA. […] To test if fluorescein binds to the P-binding site on the N-RNA, we carried out a competition experiment with M76 (Figure 6C).
We first performed FP measurements in salt-free Tris pH 8 buffer (Figure 8A). We measured binding curves using 200 nM of fluorescent peptides.
Fluorescence polarization measurements were carried out on a Paradigm Detection Platform (Beckman Coulter, Brea, CA, USA) operating with a microplate reader, a fluorescein detection cartridge (excitation range 485/20 nm, emission range 535/25 nm for both parallel and perpendicular components) and the SpectraMax Pro 6.1 software (Molecular Devices, San Jose, CA, USA). Samples were placed in polystyrene black flat bottom 96-well microplates (Cellstar, Greiner bio-one, Frickenhausen, Germany) with 20 µL final volume in each well. If not stated otherwise, the final concentration of fluorescent ligands was 200 nM. The buffer was either 20 mM MES pH 6.5, salt-free or with 250 mM NaCl, or 20 mM Tris pH 8.0 salt-free or with 100 mM NaCl, supplemented with 0.01% Brij-35. Mixing was done using the corresponding plate reader option. The temperature was set to 20 °C. Data were recorded in top reading mode. Measurements were done in triplicate and after an incubation time of 30 min, if not indicated otherwise. Fluorescence polarization (FP) in mFP units was determined from the parallel (I∥) and perpendicular (I⊥) components of the emitted light according to Equation (4). A grating factor G of 1.2 was determined using 1 nM fluorescein in 1 mM NaOH and assuming a theoretical FP of 27 mFP [48]. Background signal was measured from wells containing only buffer, and the mean value was subtracted from each I∥ and I⊥ component. (4) FP (mP)=1000×(I∥−G∗I⊥)/(I∥+G×I⊥)
We assumed that the measured fluorescence polarization FP is a linear combination of the FP of the fluorescent probe in the absence of N protein (FPmin) and the FP of N-bound fluorescent probe (FPmax), weighted by the molar fraction. The molar fraction x = [P]bound/[P]0 can then be expressed as a ratio of FP differences (Equation (8)). (8) x=(FP−FPmin)/(FPmax−FPmin)=∆FP/∆FPmax
To determine the Kd value of a complex between a fluorescent probe and N protein, a series of samples with constant probe concentration and varying N concentration was measured. FP binding curves were fitted with a single binding site model and a 1:1 stoichiometry.

[2] = Chemical stability of fluorescently labeled P peptides; format: physicochemical; conditions: slightly acidic conditions / HPLC purification and FP assay conditions
Method: We started by labeling the pP11 peptide with N-terminally attached BODIPY FL, as described by Shapiro at al.. […] We then produced F11, another labelled peptide P11, by changing the fluorescent label to fluorescein-5-thiourea (FTU) by coupling with fluorescein-5-isothiocyanate (FITC). […] To directly compare FP and NMR data, we made measurements in MES pH 6.5 buffer. Brij-35 detergent (0.01% w/v) was added below its critical micellar concentration (0.11% w/v) to prevent spurious binding of the peptide to the reading plates. […] We tested buffer with and without salt.
Such derivatives were recently described as tags for bioconjugation, but, to our knowledge, not for an FP assay. […] To assess the properties of BODIPY FL as a fluorescent label for P peptides, we produced a new series of eight dicyano BODIPY FL-labeled (BCNn) peptides of variable length (Table 4) and tested them for N-RNA binding.

T1 sequence (P03418 whole entry, looked up, the tested form may be a part, one chain of several): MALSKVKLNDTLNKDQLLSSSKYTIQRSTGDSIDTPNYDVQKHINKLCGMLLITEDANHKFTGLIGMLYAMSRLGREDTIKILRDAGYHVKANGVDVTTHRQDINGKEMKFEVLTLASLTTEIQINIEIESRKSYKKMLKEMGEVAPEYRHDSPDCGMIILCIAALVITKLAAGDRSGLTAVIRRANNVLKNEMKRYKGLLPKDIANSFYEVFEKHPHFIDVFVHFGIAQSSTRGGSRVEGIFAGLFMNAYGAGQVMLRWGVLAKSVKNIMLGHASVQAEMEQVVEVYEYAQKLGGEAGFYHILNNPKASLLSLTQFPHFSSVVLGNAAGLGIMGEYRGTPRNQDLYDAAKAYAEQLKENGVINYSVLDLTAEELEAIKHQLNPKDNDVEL

Compound	Kd [1]	chemical stability [2]
CC(C)C[C@H](NC(=O)[C@H](CO)NC(=O)[C@H](CC(C)C)NC(=O)[C@H](CC(=O)O)NC(=O)[C@H](CC(N)=O)NC(=O)[C@H](CC(=O)O)NC(=O)[C@H](CO)NC(=O)[C@H](CC(=O)O)NC(=S)Nc1ccc2c(c1)C(=O)OC21c2ccc(O)cc2Oc2cc(O)ccc21)C(=O)N[C@@H](CCC(=O)O)C(=O)N[C@@H](CC(=O)O)C(=O)N[C@@H](Cc1ccccc1)C(=O)O [F11, ϕ-DS232DNDLS237LEDF-OH] ({FITC}-DSDNDLSLEDF-OH)	7.6 ± 0.9 µM	stable
Cc1cc(C)n2c1C=C1C=CC(CCC(=O)N[C@@H](CC(=O)O)C(=O)N[C@@H](COP(=O)(O)O)C(=O)N[C@@H](CC(=O)O)C(=O)N[C@@H](CC(N)=O)C(=O)N[C@@H](CC(=O)O)C(=O)N[C@@H](CC(C)C)C(=O)N[C@@H](COP(=O)(O)O)C(=O)N[C@@H](CC(C)C)C(=O)N[C@@H](CCC(=O)O)C(=O)N[C@@H](CC(=O)O)C(=O)N[C@@H](Cc3ccccc3)C(=O)O)=[N+]1[B-]2(F)F [BF2pP11] ({BODIPY(FL)}-D[pS]DNDL[pS]LEDF-OH)	–	prone to degradation
